Data on one molecule can be found in patent US7384758B2, “Bioluminescent protease assay with modified aminoluciferin or derivatives thereof” (Promeaga Corporation, priority 2002, dated 2008).

For orientation: Km means the concentration of substrate that gives half-maximal velocity.

SMILES strings stand for the structures.

In assay [1] the target is T1, caspase 3 (Homo sapiens, UniProt P42574).
T1 construct: approximately 10 mU/ng protein with >75% in active conformation; purchased Upstate Biotech 14-264
T1 sequence (P42574 29-175 limits assumed): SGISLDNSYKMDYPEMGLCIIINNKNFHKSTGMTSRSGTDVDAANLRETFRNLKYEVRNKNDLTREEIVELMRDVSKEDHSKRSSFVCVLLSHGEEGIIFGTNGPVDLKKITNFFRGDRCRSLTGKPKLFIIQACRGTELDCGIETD
T1 sequence (P42574 176-277 limits assumed): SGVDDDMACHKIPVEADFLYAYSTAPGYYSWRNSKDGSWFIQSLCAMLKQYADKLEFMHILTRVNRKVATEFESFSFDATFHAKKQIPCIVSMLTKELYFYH
The experiment in a line: caspase titration in CHAPS or Thesit buffer formulations (Example 5). The format is biochemical. The following applies: buffer containing either CHAPS or Thesit, FIG. 12. On the procedure: To evaluate different assay component formulations for caspase-3 activity and to compare sensitivities of DEVD-aminoluciferin to DEVD-Rho-110 in those formulations, two stock solutions were prepared. As above, the DEVD-aminoluciferin/luciferase mixture is prepared and allowed to incubate overnight. One stock solution included a 1% solution of CHAPS buffer (Sigma, Catalog No. C-5070) and the other a 1% solution of Thesit (Pragmatics, Inc., Catalog No. S-22#9). The buffer formulations were as follows: 100 μl of HEPES (1 M stock, 50 mM final concentration), 10 μl of CaCl2 (1 M stock, 5 mM final concentration), 30 μl of MgSO4 (1 M stock, 15 mM final concentration), 8 μl of ATP (0.1 M stock, 400 μM final concentration), 8 μl of DEVD-aminoluciferin (10 mM stock, 40 μM final concentration), 38.4 μl of luciferase (5.2 mg/ml stock, 100 μg/ml final concentration) and 20 μl of prionex (10% stock, 0.1% final concentration) were combined in each of 2 tubes. Finally, 200 μl of either CHAPS or Thesit (1% stock, 0.1% final concentration) was added to one of the tubes. This was incubated overnight. […]
To one plate, 50 μl of DEVD-aminoluciferin/luciferase was added to each of the 6 wells containing each dilution (both CHAPS and Thesit treated). […] The plates were read at various times on a luminometer (Dynex) or a fluorimeter (Fluoroskan).

In assay [2] the test system is thermostable firefly luciferase. The experiment in a line: luminescent reaction with luciferin or aminoluciferin as luciferase substrate (FIG. 1). The class given is biochemical. The text has this: FIG. 1 depicts relative light units (RLU) for luciferin or aminoluciferin as a substrate for a thermostable firefly luciferase in a luminescent reaction.

On to `Nc1ccc2nc(C3=N[C@@H](C(=O)O)CS3)sc2c1` [aminoluciferin], for which, in assay [1], the “limit of detection (caspase)” value is on record as around 0.2 μU. Further, the Km in assay [2] (substrate for thermostable firefly luciferase, FIG. 1) was 2 µM. In addition, the “light output as luciferin” value in assay [2] (under saturating conditions, relative to luciferin) is reported as “about 60%”.
